{"source": "patent US6592845B2", "about": "“Estrogens for treating ALS” (Parker Hughes Institute, priority 1999, dated 2003)", "tested_on": "Heterozygous transgenic mice carrying the human SOD-1 (G93A)", "assay": "Murine model of familial ALS (FALS): monitoring for limb paralysis and death, life-table analysis", "type": "in vivo", "settings": "16 mg/kg twice a day, everyday except weekends", "protocol": "(§1) Heterozygous transgenic mice carrying the human SOD-1 (G93A) were obtained from Jackson Laboratory (Bar Harbor, Me., USA). These mice were monitored everyday for limbic paralysis and death. Onset of FALS was defined as the first day upon which limbic paralysis was observed. Life-table analysis was performed using Statview, Abacus Concepts, Inc. (Berkeley, Calif.).\nThere are currently several transgenic animal models of ALS (Borchelt et al., 1998, Transgenic mouse models of Alzheimer's disease and amyotrophic lateral sclerosis, Brain Pathology, 8: 735-757). The G93A HuSOD1 is a well established animal model of familial ALS which has been described previously in detail (Dal Canto M C, Gurney Me., 1994, The development of central nervous system pathology in a murine transgenic model of human amyotrophic lateral sclerosis. Am J. Pathol 145: 1-9; Gurney et al., 1994, Motor neuron degeneration in mice that express a human Cu,Zn superoxide dismutase mutation, Science 264:1772-1775). Levels of SOD1 activity are elevated to about five times above that of endogenous SOD 1 in these mice. In this model, the mice develop hind limb weakness, a coarse coat, poor grooming, and reduced stride length at about 3 months of age. By five months of age, a majority of the mice are moribund.\nas §1, with “USA). The mice were treated either with vehicle or genistein at 16 mg/kg twice a day, everyday, except on weekends. The” for “USA). These”, “for limb” for “for limbic”, “Calif.). […]” for “Calif.).”\nThe ability of 4-(4′-hydroxylphenyl)-amino-6,7-dimethoxyquinazoline (P131) and 2,4,4′-trihydroxy deoxybenzoin (DDE-17) to protect against neural degeneration in familial ALS was evaluated using the methods described above for Example 2. […]", "key": {"[1]": {"settings": "male FALS mice, compared with vehicle-treated males"}}}
{"compound": "O=c1c(-c2ccc(O)cc2)coc2cc(O)cc(O)c12", "note": "[Genistein, genistein]", "values": [{"measurement": "disease onset (first day upon which limbic paralysis was observed)", "setting": "female FALS mice, compared with untreated (vehicle) females", "result": "did not exhibit a delay"}, {"measurement": "disease onset (first day upon which limbic paralysis was observed)", "setting": "[1]", "result": "delayed"}, {"measurement": "mortality", "setting": "[1]", "result": "delayed"}]}
